The source of these data is patent publication US20170215422A1, “NOVEL CYCLIC DEPSIPEPTIDE DERIVATIVES AND HARMFUL ORGANISM CONTROL AGENTS COMPRISING THE SAME” (priority 2012, published 2017).

Common to all, as to assay type: in vivo
Test [1] has as its system egg of drug-resistant Tetranychus uruticae. The experiment in a line: Ovicidal effect against egg of drug-resistant Tetranychus uruticae. The note with it: foliage treatment of 10 ppm; eggs, drug-resistant strain; 7 days. How it is done:
<Miticidal Effect Against Two-Spotted Spider Mite (Drug-Resistant Strain)>
(§1) A leaf disk having a diameter of 2.0 cm was cut out from a kidney bean grown in a pot. The leaf disk was inoculated with seven female adult of drug-resistant Tetranychus uruticae, followed by laying in a thermostatic chamber (25° C.). After the elapse of 24 hr, female adults were removed from the leaf disk. The foliage was treated with a chemical solution adjusted to a 50% aqueous acetone solution (0.05% Tween 20 added) containing a compound of the present invention at a predetermined concentration. The foliage was then air-dried and was allowed to stand in a thermostatic chamber (light period 16 hr-dark period 8 hr) (25° C.). Seven days after the chemical solution treatment, the number of remaining eggs and the number of dead mites were counted, and the ovicidal/miticidal rate was calculated by the following equation.
(§2) Ovicidal/miticidal rate (%)={(number of remaining eggs+number of dead mites)/(number of remaining eggs+number of dead mites+number of survived insects)}×100

Test [2] relates to egg of Tetranychus uruticae (susceptible strain). The experiment in a line: Ovicidal effect against egg of Tetranychus uruticae (susceptible strain). The settings on record: foliage treatment of 10 ppm; control agent. As to the method: <Miticidal Effect Against Two-Spotted Spider Mite (Susceptible Strain)>
as §1, with “of” for “of drug-resistant”
as §2

Test [3] relates to Haemaphysalis longicornis. The experiment in a line: Tickicidal effect against Haemaphysalis longicornis (capsule on mouse). The settings on record: treatment of 9.5 μg on mouse body surface; nymphal ticks; 5 days. As to the method: A capsule having a diameter of 2 cm and a height of 2 cm was bonded to a surface of a back surface of a mouse. A compound of the present invention (9.5 μg) was dissolved in ethanol, and the solution was dropped on the surface of the body of the […] within the capsule. After thorough drying, ten nymphal ticks of Haemaphysalis longicornis were released, and the upper portion of the capsule was lidded for hermetical closing. The mouse was grown in a cage at 25° C. for 12 hr under light phase conditions. Five days after the release, the capsule was removed, and survival or death of the nymphal ticks and the number of blood sucked individuals were measured, and the death/anguish rate was calculated by the following equation.
Death/anguish rate (%)={number of dead/anguished insects/(number of survived ticks+number of dead/anguished insects)}×100

In another test the test system is Musca domestica. The experiment in a line: Control effect against Musca domestica adults (sucrose solution on swab). The note with it: 50 ppm in 40% sucrose solution, 4 days. How it is done: A chemical solution of the compound according to the present invention that had been adjusted with a 40% sucrose solution to a concentration of 50 ppm was adsorbed on a swab, and the swab was placed in a vial. Two adults of Musca domestica grown in a room were released, followed by standing in a room at a room temperature of 25° C. […] When two insects were in a dead or anguished state, the test compound was determined to be effective.

Test [4] has as its system larvae of Musca domestica. As to the kind of experiment: Control effect against larvae of Musca domestica (treated feed). The note with it: treatment of 12.5 ppm in feed; 5 days. How it is done:
A compound of the present invention was applied to a very small amount of DMSO, followed by dissolution in deionized water to prepare a chemical solution. The chemical solution (2 mil) adjusted to a concentration of 12.5 ppm was added to and well mixed with 2 g of a powder prepared by mixing wheat bran, MF feed (ORIENTAL YEAST Co., Ltd.), and dry yeast at a wheat bran:MF feed:dry yeast of 25:5:1 to prepare a feed for larvae of Musca domestica. The feed containing the compound was lightly packed in a 3-ml vial, and eight eggs were released. The mouth of the vial was closed with a meshed lid, and the vial was left to stand at 25° C. The number of larvae was counted five days after the chemical treatment, and the death rate was calculated by the following equation. The test was carried out by replicating each treatment twice.
Death rate (%)={number of dead larvae/(number of survived larvae+number of dead larvae)}×100

Regarding `CCCCCCCCCCCCC1=C(OC(C)=O)C(=O)c2ccccc2C1=O` [acequinocyl, reference compound], in test [1], the ovicidal/miticidal rate is given as 11%. Besides, in test [2], the “ovicial/miticidal rate against egg of Tetranychus uruticae (susceptible strain)” value is 71%. With `CCCCC[C@@H]1OC(=O)[C@H](C)N(C)C(=O)[C@@H](CCCCC)OC(=O)[C@H](C)N(C)C(=O)[C@@H](CCCCC)OC(=O)[C@H](CC(C)C)N(C)C(=O)[C@@H](CCCCC)OC(=O)[C@H](C)N(C)C1=O` [Compound 27], in test [3], the death/anguish rate entry was “not less than 70%”. The “insecticidal activity (two adults dead or anguished = effective)” value in the test on Musca domestica was “two insects were brought to a dead or anguished state”. For the molecule `CCCCCC1OC(=O)C(CC(C)C)N(C)C(=O)C(CCCCC)OC(=O)C(CC(C)C)N(C)C(=O)C(CCCCC)OC(=O)C(CCC)N(C)C(=O)C(CCCCC)OC(=O)CN(C)C1=O` (centres unmarked) [Compound 57], in test [4], the death rate is 100%.
